Results on twelve compounds are retold here after patent publication US6946475B1, “Anticancer calcium channel blockers” (University of Virginia Patent Foundation, priority 1999, dated 2005).

For assay [1], the system named is Jurkat cells. Briefly: Measurement of cellular proliferation, Jurkat cells. The format is cell-based. Particulars: for Effect on proliferation of Jurkat cells: FIGS. 10-39. The method, then:
(§1) Measurement of cellular proliferation: LNCaP cells at 2.5×10^4/well or PC3 cells at 5×10^4/well, both in a final volume of 100 μl, were plated in triplicate in standard flat bottom 96 well tissue culture plates in the presence of drug or vehicle (DMSO). Unless otherwise indicated, cells were grown for 48 hours at 37° C. in a CO2 incubator. Relative cell growth was determined with the CellTiter 96 aqueous cell proliferation assay (Promega, Madison, Wis.) as described by the manufacturer using an automated plate reader. Results were calculated in a blinded fashion and are means of triplicate determinations.
(§2) For the 48 hour proliferation, cells were cultured with calcium channel antagonists or without calcium channel antagonists. The IC50 values of the calcium channel antagonists were determined.
(§3) Using the measurement cell proliferation assay described hereinabove, the cell lines Jurkat, LNCap (prostate cancer cell), PC-31 (prostate cancer cell), DU145 (prostate cancer cell), MDA-468 (breast cancer cell), MDA-36 (Breast cancer cell), MCF-7 (breast cancer cell), MIA PaCa-2 (pancreatic cancer cell), Hep G2 (liver cancer cell), A549 (non-small cell lung cancer cells), NCI H460 (non-small cell lung cancer cells), HT-29 (colon cancer cell), HCT-116 (colon cancer cell) and SK OV-3 (ovarian cancer cell) were cultured in the presence of TH-1177, TH-1205, TH-1201, TH-2109, TH-2029, TH-2043, TN-2085 and TH-2279.

Assay [2] deals with LNCaP prostate cancer cells. Description: Measurement of cellular proliferation, LNCaP cells. For Effect on proliferation of LNCaP cells: test concentration or dose not given here. It is filed as cell-based, human. Conditions: for Effect on proliferation of LNCaP cells: FIGS. 10-39. The method, then: as §1, §2, §3
Assay [3] concerns MDA-361 cells (breast cancer cell). Briefly: Measurement of cellular proliferation, MDA-361 cells. The format is cell-based. Particulars: for Effect on proliferation of MDA-361 cells: 48 hours, FIGS. 10-39. The method, then:
as §1, §2, §3

The subject of assay [4] is PC3 prostate cancer cells. Description: Measurement of cellular proliferation, PC3 cells. The format is cell-based, human. Particulars: for Effect on proliferation of PC3 cells: 48 hours, FIGS. 10-39; for IC50: PC-3, 48 hours, read-out: PROLIFERATION IC50 PC-3. The method, then: as §1, §2, §3
Assay [5] deals with MDA-468 (breast cancer cell). Description: Measurement of cellular proliferation, MDA-468 cells. For Effect on proliferation of MDA-468 cells: test concentration or dose not given here. The format is cell-based. Particulars: for Effect on proliferation of MDA-468 cells: 48 hours, FIGS. 10-39; for IC50: MDA-468, 48 hours. The method, then: as §1, §2, §3
Assay [6] has as its system DU145 (prostate cancer cell). Description: Measurement of cellular proliferation, DU145 cells. It is filed as cell-based. Particulars: DU 145, 48 hours. The protocol: as §1, §2, §3
Assay [7] has as its system MCF-7 (breast cancer cell). Briefly: Measurement of cellular proliferation, MCF-7 cells. The format is cell-based. Conditions: MCF-7, 48 hours. The method, then:
as §1, §2, §3

Assay [8] has as its system MIA PaCa-2 (pancreatic cancer cell). Briefly: Measurement of cellular proliferation, MIA PaCa-2 cells. It is filed as cell-based. Conditions: MIA PaCa-2, 48 hours. The method, then: as §1, §2, §3
Assay [9] has as its system Hep G2 (liver cancer cell). Briefly: Measurement of cellular proliferation, Hep G2 cells. It is filed as cell-based. Conditions: Hep G2, 48 hours. The method, then: as §1, §2, §3
In assay [10] the test system is A549 (non-small cell lung cancer cells). Briefly: Measurement of cellular proliferation, A549 cells. It is filed as cell-based. Conditions: A549, 48 hours. The method, then: as §1, §2, §3
Assay [11] has as its system NCI H460 (non-small cell lung cancer cells). Description: Measurement of cellular proliferation, NCI H460 cells. It is filed as cell-based. Conditions: NCI H460, 48 hours; read-out: PROLIFERATION IC50 NCl H460. The method, then:
as §1, §2, §3

Assay [12] relates to HT-29 (colon cancer cell). Briefly: Measurement of cellular proliferation, HT-29 cells. It is filed as cell-based. Particulars: HT-29, 48 hours. The method, then:
as §1, §2, §3

The test system of assay [13] is HCT-116 (colon cancer cell). Description: Measurement of cellular proliferation, HCT-116 cells. The format is cell-based. Particulars: HCT 116, 48 hours. The method, then:
as §1, §2, §3

For assay [14], the system named is SK OV-3 (ovarian cancer cell). Briefly: Measurement of cellular proliferation, SK OV-3 cells. It is filed as cell-based. Conditions: SK-OV-3, 48 hours. The method, then:
as §1, §2, §3

Where [15] appears, read: Example 7, Jurkat, read-out: cell proliferation test of Example 6 repeated, Jurkat.
[16] abbreviates: Example 7, LNCaP, read-out: cell proliferation test of Example 6 repeated, LNCaP.
Where [17] appears, read: Example 7, MDA-361, read-out: cell proliferation test of Example 6 repeated, MDA-361.
Where [18] appears, read: Jurkat, 48 hours, read-out: PROLIFERATION IC50 Jurkat.
The mark [19] stands for this setting: LNCaP, 48 hours, read-out: PROLIFERATION IC50 LNCaP.
The mark [20] stands for this setting: MDA-361, 48 hours, read-out: PROLIFERATION IC50 MDA-361.

Read-outs that look alike come from different tables or passages of the source. Where only a bound is given, the exact number is not on record here.

`COc1ccccc1CCN1CCC[C@H]1COC(c1ccccc1)c1ccc(Cl)cc1` (stereo partly drawn) [TH-3104]: the IC50 in [1] (setting [15]) worked out at 3.8 µM; in assay [2] (setting [16]), 2.4 µM; in [3] (setting [17]), 13 µM.

For the compound `c1ccc(C(CN2CCC(COC(c3ccccc3)c3ccccc3)CC2)c2ccccc2)cc1` [MMR-70], in assay [1] (48 hours), the “Effect on proliferation of Jurkat cells” value is reported as “inhibition”. Also, the “Effect on proliferation of LNCaP cells” value in [2] (48 hours) is “inhibition”. The “Effect on proliferation of PC3 cells” value in [4] was “inhibition”. The “Effect on proliferation of MDA-468 cells” value in assay [5] is on record as “inhibition”. Also, the “Effect on proliferation of MDA-361 cells” value in [3] was “inhibition”.

In the case of `COc1cccc(CCN2CCC[C@H]2COC(c2ccccc2)c2ccc(Cl)cc2)c1` (stereo partly drawn) [TH-3105], the IC50 is 5 µM in assay [1] (setting [15]), 3.2 µM in [2] (setting [16]) and 29 µM in [3] (setting [17]).

`COc1ccc(CCN2CCC(COC(c3ccc(Cl)cc3)c3ccc(Cl)cc3)CC2)cc1` [TH-2043]: the IC50 in assay [1] (setting [18]) is 8 µM; in assay [2] (setting [19]) it was 4 µM; in assay [4], 14 µM; in assay [6], 9 µM; in assay [5], 8 µM; in assay [3] (setting [20]) it was 13 µM. Besides, the IC50 in assay [7] is 29 µM; in [8] it was 17 µM; in assay [9] it was greater than 100 µM; in [10], 20 µM; in assay [11] it was 10 µM; in assay [12], greater than 100 µM. Moreover, the IC50 in assay [13] was 10 µM; in assay [14], 23 µM.

`c1ccc(C(CN2CCCCC2)c2ccccc2)cc1` [MMR-64]: the “Effect on proliferation of Jurkat cells” value in [1] (48 hours) was “inhibition”. Also, the “Effect on proliferation of LNCaP cells” value in assay [2] (48 hours) is recorded as “inhibition”. Also, the “Effect on proliferation of PC3 cells” value in assay [4] was “inhibition”. Further, the “Effect on proliferation of MDA-468 cells” value in assay [5] is “inhibition”. In assay [3], the “Effect on proliferation of MDA-361 cells” value is reported as “inhibition”.

Consider `COc1ccc(CCN2CCC[C@H]2COC(c2ccc(Cl)cc2)c2ccc(Cl)cc2)cc1` [TH-2019], for which the IC50 stood at 7 µM in [1] (setting [18]); 4 µM in assay [2] (setting [19]); 19 µM in assay [4]; 28 µM in assay [6]; 21 µM in [5]; 23 µM in [3] (setting [20]). The IC50 in assay [7] was 30 µM; in assay [8], 17 µM; in assay [9], 30 µM; in [10] it was 72 µM; in [11], 12 µM; in assay [12], roughly 100 µM. Also, the values for the IC50 in assay [13] and in assay [14] were 31 µM and 30 µM, respectively.

`COc1ccc(CCN2CCCC2COC(c2ccccc2)c2ccccc2)cc1` (stereo not drawn) [TH-1113]: in assay [1] (48 hours), the “Effect on proliferation of Jurkat cells” value is on record as “concentration dependent inhibition”. For the same compound, the “Effect on proliferation of LNCaP cells” value in [2] (48 hours) is on record as “concentration dependent inhibition”. Also, the “Effect on proliferation of PC3 cells” value in [4] is listed as “concentration dependent inhibition”. In addition, the “Effect on proliferation of MDA-468 cells” value in assay [5] is given as “concentration dependent inhibition”. Also, the “Effect on proliferation of MDA-361 cells” value in assay [3] is “concentration dependent inhibition”.

For `COc1ccc(CCN2CCCC(COC(c3ccccc3)c3ccc(Cl)cc3)C2)cc1` (stereo not drawn) [TH-1205], in assay [1] (48 hours), the “Effect on proliferation of Jurkat cells” value is on record as “concentration dependent inhibition”. Besides, the IC50 in assay [1] (setting [18]) came out at 11 µM; in assay [2] (setting [19]), 5 µM; in assay [4], 23 µM; in assay [6] it was 21 µM; in assay [5], 13 µM; in [3] (setting [20]), 19 µM. In addition, the IC50 was 70 µM in assay [7]; 17 µM in [8]; 40 µM in [9]; 93 µM in [10]; 35 µM in [11]; roughly 100 µM in assay [12]. For the same compound, the IC50 amounted to 30 µM in [13] and 33 µM in assay [14]. Also, the “Effect on proliferation of LNCaP cells” value in assay [2] (48 hours) was “concentration dependent inhibition”. In addition, the “Effect on proliferation of PC3 cells” value in assay [4] is “concentration dependent inhibition”. Moreover, the “Effect on proliferation of MDA-468 cells” value in assay [5] is reported as “concentration dependent inhibition”. In addition, in assay [3], the “Effect on proliferation of MDA-361 cells” value was “concentration dependent inhibition”.

As to `COc1ccc(CCCN2CCC[C@H]2COC2c3ccccc3-c3ccccc32)cc1` [TH-2085], the IC50 in [1] (setting [18]) was 10 µM; in assay [2] (setting [19]), 4 µM; in [4], 36 µM; in assay [6] it was 41 µM; in assay [5], 14 µM; in [3] (setting [20]) it was 26 µM. For the same compound, the IC50 in [7] is 33 µM; in [8] it was 17 µM; in assay [9], 28 µM; in assay [10], 90 µM; in [11], 31 µM; in [12], roughly 60 µM. For the same compound, the figures for the IC50 in assay [13] and in [14] were 50 µM and 80 µM, respectively.

Turning to `COc1ccc(CCN2CCC(COC(c3ccccc3)c3ccc(Cl)cc3)CC2)cc1` (stereo not drawn) [TH-2029], the IC50 in assay [1] (setting [18]) came out at 11 µM; in assay [2] (setting [19]), 5 µM; in assay [4], 18 µM; in [6] it was 17 µM; in assay [5], 10 µM; in assay [3] (setting [20]), 16 µM. The IC50 in assay [7] was 37 µM; in assay [8], 17 µM; in assay [9], 30 µM; in [10], 26 µM; in assay [11] it was 24 µM; in [12] it was roughly 60 µM. Further, the IC50 in assay [13] turned out to be 18 µM; in assay [14], 24 µM.

In the case of `COc1ccc(CCN2CCC(COC(c3ccccc3)c3ccccc3)CC2)cc1` [TH-1087], the “Effect on proliferation of Jurkat cells” value in assay [1] (48 hours) is listed as “concentration dependent inhibition”. In addition, in assay [2] (48 hours), the “Effect on proliferation of LNCaP cells” value was “concentration dependent inhibition”. Moreover, in [4], the “Effect on proliferation of PC3 cells” value is “concentration dependent inhibition”. Moreover, in assay [5], the “Effect on proliferation of MDA-468 cells” value was “concentration dependent inhibition”. The “Effect on proliferation of MDA-361 cells” value in [3] is given as “concentration dependent inhibition”.

As to `COc1ccc(CCN2CCCC2COC(c2ccccc2)c2ccc(Cl)cc2)cc1` (stereo not drawn) [TH-1211], in assay [1] (48 hours), the “Effect on proliferation of Jurkat cells” value was “concentration dependent inhibition”. Moreover, the IC50 in assay [1] (setting [18]) came out at 4 µM; in [2] (setting [19]) it was 3 µM; in assay [4] it was 17 µM; in assay [6], 13 µM; in assay [5] it was 11 µM; in assay [3] (setting [20]), 14 µM. Besides, the IC50 is 24 µM in [7]; 17 µM in [8]; 20 µM in assay [9]; 41 µM in assay [10]; 13 µM in assay [11]; roughly 90 µM in assay [12]. Further, the IC50 turned out to be 32 µM in assay [13] and 23 µM in assay [14]. Besides, in assay [2] (48 hours), the “Effect on proliferation of LNCaP cells” value is reported as “concentration dependent inhibition”. Also, the “Effect on proliferation of PC3 cells” value in assay [4] is “concentration dependent inhibition”. In addition, the “Effect on proliferation of MDA-468 cells” value in assay [5] is “concentration dependent inhibition”. Further, the “Effect on proliferation of MDA-361 cells” value in [3] is recorded as “concentration dependent inhibition”.
